Assay results from US20130143297A1, “STABILIZED LIQUID TENSIDE P[…]” (Henkel AG & Co. KGaA, priority 2010, published 2013).

Test system: variant F49 of the protease from Bacillus lentus
Test: Residual proteolytic activity after storage in liquid washing agent (suc-AAPF-pNA)
Format: biochemical
Conditions: 13 days at 30° C., initial activity = 100%
From the text: A liquid washing agent of the following composition served as a baseline washing agent formulation (all indications in percent by weight): 0.3 to 0.5% xanthan, 0.2 to 0.4% antifoaming agent, 6 to 7% glycerol, 0.3 to 0.5% ethanol, 4 to 7% FAEOS (fatty alcohol ether sulfate), 24 to 28% nonionic surfactants, 1 to 2% sodium citrate (dihydrate), 2 to 4% soda, 14 to 16% coconut fatty acids, 0.5% HEDP (1-hydroxyethane-(1,1-diphosphonic acid)), 0 to 0.4% PVP (polyvinylpyrrolidone), 0 to 0.05% optical brightener, 0 to 0.001% dye, remainder demineralized water.
The aminophthalic acid 4-aminophthalic acid (Alfa Aesar) was incorporated into this formulation as the component stabilizing the hydrolytic enzyme, as indicated below (see Table 1, indications in this regard in wt %). Comparison formulations that contained either boric acid as an enzyme stabilizer, or no enzyme stabilizer, served as controls. The protease used was variant F49 of the protease from Bacillus lentus in accordance with WO 95/23221 (quantity used: 1 wt % active substance).
After storage, the respective residual proteolytic activity was determined by way of the release of the para-nitroaniline (pNA) chromophore from the suc-L-Ala-L-Ala-L-Pro-L-Phe-p-nitroanilide substrate (suc-AAPF-pNA). The protease cleaves the substrate and releases pNA. The release of pNA causes an increase in extinction at 410 nm, the time course of which is an indication of enzymatic activity (see Del Mar et al., 1979). Measurement occurred at a temperature of 25° C., at pH 8.6 and at a wavelength of 410 nm. The measurement time was 5 min, with a measurement interval from 20 s to 60 s. The proteolytic activity values obtained are indicated in Table 1 below, based on an initial activity of 100% when storage began.

[1] = 1.0 wt % stabilizer in baseline liquid washing agent

Row | Structure (SMILES) | residual proteolytic activity after storage (0.1 wt % stabilizer in baseline liquid washing agent) | residual proteolytic activity after storage (0.5 wt % stabilizer in baseline liquid washing agent) | residual proteolytic activity after storage [1] | residual proteolytic activity after storage (2.0 wt % stabilizer in baseline liquid washing agent)
1 | Nc1ccc(C(=O)O)c(C(=O)O)c1 [4-aminophthalic acid] | 28.3% | 33.3% | 40.8% | 50.0%
2 | OB(O)O [boric acid, reference compound] |  |  | 74.9% | 
